Experimental data: patent publication US20250321223A1, “ENGINEERING CHEMICALLY INDUCIBLE SPLIT PROTEIN ACTUATORS (CISPA)” (KEMIJSKI INSTITUT, priority 2021, published 2025)

Columns and labels:
[1] = biological target: split ligand binding domain of estrogen receptor beta (ERβ) (Homo sapiens, UniProt Q92731); conditions: HEK293T cells, increasing ligand concentration, compared to cells not stimulated; FIG. 2C
Text: (§1) The fusion constructs were simultaneously expressed in the HEK293T cell line. […] Following this dimerization, the split reporter fragments (nLuc and cLuc) are brought into the proximity, leading to their reconstitution and measurable output signal (emitted light). The plasmids encoding for the CISPA sensors based on split LBDs were transiently transfected into the HEK293T cell line. A constitutively expressed Renilla luciferase (phRL-TK http://www.promega.com/vectors/prltk.txf) was used as control of transfection efficiency.
(§2) Methods and techniques for cell line cultivation are well-known to experts in the field and are explained here only indicatively, with the intention of clarifying the example. Cell cultures of HEK293T cells were grown at 37° C. and 5% CO2. For cultivation, DMEM medium with 10% FBS, containing all the necessary nutrients and growth factors was used. When the cell population reached a sufficient density, the cells were transferred to a new flask and/or diluted. For use in experiments, the number of cells was determined by the Countess automated cell counter (Invitrogen). A 96-well microtiter plate, suitable for growing cell cultures, was inoculated with 2*10^4 cells per well 24 hours prior to transfection.

[2] = test system: split ligand binding domain of glucocorticoid receptor (GR2); assay: CISPA sensor, split LBD of GR2 fused to split firefly luciferase, in HEK293T cells; format: cell-based, human; conditions: increasing ligand concentration, compared to cells not stimulated, FIG. 2B
Text: as §1, §2

[3] = test system: split dihydrofolate reductase (DHFR); assay: CISPA sensor, split DHFR fused to split firefly luciferase, in HEK293T cells; format: cell-based, human; conditions: increasing ligand concentration, compared to cells not stimulated, FIG. 3B
Procedure: as §2
A constitutively expressed Renilla luciferase (phRL-TK http://www.promega.com/vectors/prltk.txf) was used as control of transfection efficiency.

Chain of split ligand binding domain of estrogen receptor beta (ERβ) (Q92731 with tags, fused parts or gaps): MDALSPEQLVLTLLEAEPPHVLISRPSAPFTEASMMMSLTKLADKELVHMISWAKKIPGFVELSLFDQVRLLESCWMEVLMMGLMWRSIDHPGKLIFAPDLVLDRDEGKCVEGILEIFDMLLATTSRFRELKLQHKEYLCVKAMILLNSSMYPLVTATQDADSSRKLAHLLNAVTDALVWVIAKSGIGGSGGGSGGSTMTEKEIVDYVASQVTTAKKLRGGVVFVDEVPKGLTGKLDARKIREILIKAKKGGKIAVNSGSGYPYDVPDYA
Chain of split ligand binding domain of estrogen receptor beta (ERβ) (Q92731 with tags, fused parts or gaps): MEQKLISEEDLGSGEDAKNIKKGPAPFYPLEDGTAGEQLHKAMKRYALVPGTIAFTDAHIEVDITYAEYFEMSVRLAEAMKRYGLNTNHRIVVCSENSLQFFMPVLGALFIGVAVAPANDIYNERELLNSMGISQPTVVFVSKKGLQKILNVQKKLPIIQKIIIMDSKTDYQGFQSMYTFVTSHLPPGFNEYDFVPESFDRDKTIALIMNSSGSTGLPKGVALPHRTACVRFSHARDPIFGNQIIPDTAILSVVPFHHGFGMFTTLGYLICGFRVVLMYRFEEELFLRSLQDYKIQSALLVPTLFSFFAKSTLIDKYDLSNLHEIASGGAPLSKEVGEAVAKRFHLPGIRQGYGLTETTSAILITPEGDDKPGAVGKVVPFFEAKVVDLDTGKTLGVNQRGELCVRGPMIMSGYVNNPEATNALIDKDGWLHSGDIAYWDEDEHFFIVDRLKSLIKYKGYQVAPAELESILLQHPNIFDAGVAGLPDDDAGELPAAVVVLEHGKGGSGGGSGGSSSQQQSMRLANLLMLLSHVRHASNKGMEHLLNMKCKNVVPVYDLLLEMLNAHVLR

| Compound | firefly luciferase activity (dimerization of split DHFR CISPA sensor) [3] | also measured |
| --- | --- | --- |
| 4-hydroxytamoxifen | – | firefly luciferase activity (dimerization of split ERβ CISPA sensor) [1]: concentration-dependent manner |
| C[C@]12CCC(=O)C=C1CC[C@@H]1[C@@H]2[C@@H](O)C[C@@]2(C)[C@H]1CC[C@]2(O)C(=O)CO [cortisol] | – | firefly luciferase activity (dimerization of split GR2 CISPA sensor) [2]: an increase in the firefly luciferase activity is observed |
| CN(Cc1cnc2nc(N)nc(N)c2n1)c1ccc(C(=O)N[C@@H](CCC(=O)O)C(=O)O)cc1 [methotrexate] | an increase in firefly luciferase activity is observed | – |
| C#CCC(Cc1cnc2nc(N)nc(N)c2n1)c1ccc(C(=O)N[C@@H](CCC(=O)O)C(=O)O)cc1 (stereo partly shown) [pralatrexate] | an increase in firefly luciferase activity is observed | – |
